Calls of active or inactive are those of the source. The rule behind the calls is not given here.
What was measured:
[1] = Toxicity in mouse xenografted with human MDA-MB-231 cells assessed as inflammation around injection site at 3 mg/kg, iv after 6 days; assay type: organism-based; conditions: in vivo, 144 h, time 6 day
[2] = test system: MDA-MB-231; assay: Cytotoxicity against human MDA-MB-231 cells; assay type: functional, cell-based
[3] = target: Cytochrome P450 3A4 (Homo sapiens, UniProt P08684); assay: Inhibition of CYP3A4 (unknown origin); assay type: ADME
Cytochrome P450 3A4, sequence (P08684 whole entry): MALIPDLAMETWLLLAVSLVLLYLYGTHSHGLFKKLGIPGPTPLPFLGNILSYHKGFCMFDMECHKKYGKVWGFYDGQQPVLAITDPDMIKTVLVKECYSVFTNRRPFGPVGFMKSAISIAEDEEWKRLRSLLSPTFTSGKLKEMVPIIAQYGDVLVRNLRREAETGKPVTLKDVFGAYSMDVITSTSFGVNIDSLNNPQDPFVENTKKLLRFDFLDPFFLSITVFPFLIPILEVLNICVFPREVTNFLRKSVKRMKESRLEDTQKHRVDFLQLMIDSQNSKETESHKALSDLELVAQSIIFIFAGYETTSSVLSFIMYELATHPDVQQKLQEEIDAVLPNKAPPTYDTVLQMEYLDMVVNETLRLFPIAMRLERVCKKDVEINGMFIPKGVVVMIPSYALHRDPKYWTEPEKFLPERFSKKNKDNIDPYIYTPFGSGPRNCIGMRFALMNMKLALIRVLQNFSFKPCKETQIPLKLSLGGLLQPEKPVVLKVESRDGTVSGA

[4] = target: T1, Cytochrome P450 1A2 (Homo sapiens, UniProt P05177); assay: Inhibition of CYP1A2 (unknown origin); assay type: ADME
T1 sequence (P05177 whole entry): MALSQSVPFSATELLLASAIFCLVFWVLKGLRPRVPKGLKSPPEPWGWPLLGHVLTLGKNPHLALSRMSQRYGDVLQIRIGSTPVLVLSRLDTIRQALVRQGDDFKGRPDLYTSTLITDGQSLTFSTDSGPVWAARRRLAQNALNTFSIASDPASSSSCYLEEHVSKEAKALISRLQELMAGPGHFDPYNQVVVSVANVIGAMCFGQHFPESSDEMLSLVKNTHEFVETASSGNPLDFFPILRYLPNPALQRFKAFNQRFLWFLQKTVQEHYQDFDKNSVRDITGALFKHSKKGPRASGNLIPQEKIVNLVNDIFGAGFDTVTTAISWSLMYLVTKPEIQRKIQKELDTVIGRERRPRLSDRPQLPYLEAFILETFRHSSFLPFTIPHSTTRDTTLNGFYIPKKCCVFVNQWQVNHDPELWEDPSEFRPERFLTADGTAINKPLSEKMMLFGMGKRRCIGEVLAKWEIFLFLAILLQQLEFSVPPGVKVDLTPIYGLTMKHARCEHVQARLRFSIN

[5] = target: Cytochrome P450 2C9 (Homo sapiens, UniProt P11712); assay: Inhibition of CYP2C9 (unknown origin); assay type: ADME
Cytochrome P450 2C9, sequence (P11712 whole entry): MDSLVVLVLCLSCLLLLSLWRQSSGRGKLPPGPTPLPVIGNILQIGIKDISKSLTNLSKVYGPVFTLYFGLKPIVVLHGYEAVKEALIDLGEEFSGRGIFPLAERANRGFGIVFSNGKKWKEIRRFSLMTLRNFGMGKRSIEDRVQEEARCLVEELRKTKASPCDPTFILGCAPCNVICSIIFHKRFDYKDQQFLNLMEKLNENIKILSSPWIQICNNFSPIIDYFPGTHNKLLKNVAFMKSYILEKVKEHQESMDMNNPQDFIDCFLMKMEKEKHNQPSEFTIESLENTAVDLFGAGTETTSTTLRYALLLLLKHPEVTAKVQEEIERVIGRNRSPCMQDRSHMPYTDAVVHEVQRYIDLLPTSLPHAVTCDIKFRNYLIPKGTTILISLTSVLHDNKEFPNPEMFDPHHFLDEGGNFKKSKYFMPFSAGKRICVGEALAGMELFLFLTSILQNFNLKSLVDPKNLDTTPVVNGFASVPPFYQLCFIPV

[6] = target: Cytochrome P450 2C19 (Homo sapiens, UniProt P33261); assay: Inhibition of CYP2C19 (unknown origin); assay type: ADME
Cytochrome P450 2C19, sequence (P33261 whole entry): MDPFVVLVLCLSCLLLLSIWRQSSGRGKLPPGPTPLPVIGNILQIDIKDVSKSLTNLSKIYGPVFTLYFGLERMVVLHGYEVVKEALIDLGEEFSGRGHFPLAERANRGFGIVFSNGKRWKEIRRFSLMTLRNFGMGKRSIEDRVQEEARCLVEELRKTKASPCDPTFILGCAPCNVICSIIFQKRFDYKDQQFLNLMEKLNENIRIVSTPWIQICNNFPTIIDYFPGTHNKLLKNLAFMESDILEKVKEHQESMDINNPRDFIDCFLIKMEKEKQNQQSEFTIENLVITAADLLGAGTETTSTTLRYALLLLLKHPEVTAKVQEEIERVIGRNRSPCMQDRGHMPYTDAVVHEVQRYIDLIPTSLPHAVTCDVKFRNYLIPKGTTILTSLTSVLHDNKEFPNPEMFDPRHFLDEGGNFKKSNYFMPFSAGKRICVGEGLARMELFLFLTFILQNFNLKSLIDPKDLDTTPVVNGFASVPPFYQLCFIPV

[7] = target: Cytochrome P450 2D6 (Homo sapiens, UniProt P10635); assay: Inhibition of CYP2D6 (unknown origin); assay type: ADME
Cytochrome P450 2D6, sequence (P10635 whole entry): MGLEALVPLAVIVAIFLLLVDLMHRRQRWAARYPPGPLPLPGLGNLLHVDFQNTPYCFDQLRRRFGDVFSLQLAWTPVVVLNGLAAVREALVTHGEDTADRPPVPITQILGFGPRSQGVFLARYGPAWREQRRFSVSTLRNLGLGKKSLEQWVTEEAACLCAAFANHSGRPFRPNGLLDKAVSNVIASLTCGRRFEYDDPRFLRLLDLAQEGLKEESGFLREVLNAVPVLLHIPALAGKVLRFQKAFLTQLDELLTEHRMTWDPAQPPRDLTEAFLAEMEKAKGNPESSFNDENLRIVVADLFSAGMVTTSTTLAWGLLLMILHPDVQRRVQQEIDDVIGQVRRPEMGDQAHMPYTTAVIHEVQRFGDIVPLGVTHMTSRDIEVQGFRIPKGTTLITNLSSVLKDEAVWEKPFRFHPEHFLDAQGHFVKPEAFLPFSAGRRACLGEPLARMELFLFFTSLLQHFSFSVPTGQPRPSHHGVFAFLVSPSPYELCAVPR

[8] = Stability in human microsomes assessed as parent compound remaining at 60 mins; assay type: ADME, Microsome; conditions: read-out: Stabilty
[9] = Stability in dog microsomes assessed as parent compound remaining at 60 mins; assay type: ADME, Canis lupus familiaris, Microsome; conditions: read-out: Stabilty
[10] = Stability in rat microsomes assessed as parent compound remaining at 60 mins; assay type: ADME, Microsome; conditions: read-out: Stabilty
[11] = Stability in mouse microsomes assessed as parent compound remaining at 60 mins; assay type: ADME, Microsome; conditions: read-out: Stabilty
[12] = target: T2, E3 ubiquitin-protein ligase XIAP (Homo sapiens, UniProt P98170); assay: Binding affinity to human XIAP-BIR3 (241 to 356 residues)
T2 sequence (P98170 whole entry, the tested form may be a part): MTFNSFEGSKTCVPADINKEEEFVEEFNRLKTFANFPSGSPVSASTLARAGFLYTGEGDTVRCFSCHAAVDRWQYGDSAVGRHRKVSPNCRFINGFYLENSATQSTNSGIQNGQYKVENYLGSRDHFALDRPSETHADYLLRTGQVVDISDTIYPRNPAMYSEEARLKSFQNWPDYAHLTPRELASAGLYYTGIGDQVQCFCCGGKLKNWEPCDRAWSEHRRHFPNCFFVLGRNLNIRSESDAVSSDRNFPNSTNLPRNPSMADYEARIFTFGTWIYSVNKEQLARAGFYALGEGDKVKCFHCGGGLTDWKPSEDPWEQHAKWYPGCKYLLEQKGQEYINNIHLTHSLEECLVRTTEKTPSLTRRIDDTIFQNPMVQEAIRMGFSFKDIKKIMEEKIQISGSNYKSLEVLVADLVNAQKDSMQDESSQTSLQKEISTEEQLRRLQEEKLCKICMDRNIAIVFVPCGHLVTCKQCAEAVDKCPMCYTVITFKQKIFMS

[13] = target: T2, E3 ubiquitin-protein ligase XIAP; assay: Antagonist activity at XIAP in human MDA-MB-231 cells assessed as fold change in Caspase-9 activation at 1 nM; assay type: cell-based; conditions: filed as antagonist
[14] = target: T2, E3 ubiquitin-protein ligase XIAP; assay: Antagonist activity at XIAP in human MDA-MB-231 cells assessed as fold change in Caspase-3 activation at 1 nM; assay type: cell-based; conditions: filed as antagonist
[15] = test system: MDA-MB-468; assay: Cytotoxicity against human MDA-MB-468 cells; assay type: functional, cell-based
[16] = test system: MCF7; assay: Cytotoxicity against human MCF7 cells; assay type: functional, cell-based
[17] = test system: OVCAR-3; assay: Cytotoxicity against human OVCAR-3 cells; assay type: functional, cell-based
[18] = test system: BXPC-3; assay: Cytotoxicity against human BxPC3 cells; assay type: functional, cell-based
[19] = test system: PANC-1; assay: Cytotoxicity against human PANC-1 cells; assay type: functional, cell-based
[20] = test system: MIA PaCa-2; assay: Cytotoxicity against human MIA PaCa-2 cells; assay type: functional, cell-based
[21] = test system: J82; assay: Cytotoxicity against human J82 cells; assay type: functional, cell-based
[22] = test system: HS27; assay: Cytotoxicity against human HS27 cells; assay type: cell-based
[23] = Toxicity in mouse xenografted with human MDA-MB-231 cells assessed as reduction in weight at 3 mg/kg, iv administered for 14 days and measured after 30 days; assay type: organism-based; conditions: in vivo, 336 h, time 14 day
[24] = test system: MDA-MB-231; assay: Antitumour activity against in human MDA-MB-231 cells xenografted in mouse assessed as reduction in tumour burdens at 3 mg/kg, iv administered for 14 days and measured after 30 days; assay type: functional, organism-based; conditions: time 14.0 day
[25] = test system: MDA-MB-231; assay: Cytotoxicity against human MDA-MB-231 cells assessed as cell viability at 1 nM (reference value: 98%); assay type: functional; conditions: read-out: Activity
[26] = test system: MDA-MB-231; assay: Cytotoxicity against human MDA-MB-231 cells assessed as cell viability at 2 nM (reference value: 98%); assay type: functional; conditions: read-out: Activity
[27] = test system: MDA-MB-231; assay: Cytotoxicity against human MDA-MB-231 cells assessed as cell viability at 5 nM (reference value: 98%); assay type: functional; conditions: read-out: Activity
[28] = target: T2, E3 ubiquitin-protein ligase XIAP; assay: Induction of degradation of XIAP-BIR3 domain in human MDA-MB-231 cells; assay type: cell-based; conditions: dose 1-5 nM
[29] = target: Baculoviral IAP repeat-containing protein 2 (Homo sapiens) (UniProt Q13490); assay: Induction of degradation of cIAP1-BIR3 domain in human MDA-MB-231 cells; assay type: cell-based; conditions: dose 1-5 nM
Baculoviral IAP repeat-containing protein 2 (Homo sapiens), sequence (Q13490 whole entry, the tested form may be a part): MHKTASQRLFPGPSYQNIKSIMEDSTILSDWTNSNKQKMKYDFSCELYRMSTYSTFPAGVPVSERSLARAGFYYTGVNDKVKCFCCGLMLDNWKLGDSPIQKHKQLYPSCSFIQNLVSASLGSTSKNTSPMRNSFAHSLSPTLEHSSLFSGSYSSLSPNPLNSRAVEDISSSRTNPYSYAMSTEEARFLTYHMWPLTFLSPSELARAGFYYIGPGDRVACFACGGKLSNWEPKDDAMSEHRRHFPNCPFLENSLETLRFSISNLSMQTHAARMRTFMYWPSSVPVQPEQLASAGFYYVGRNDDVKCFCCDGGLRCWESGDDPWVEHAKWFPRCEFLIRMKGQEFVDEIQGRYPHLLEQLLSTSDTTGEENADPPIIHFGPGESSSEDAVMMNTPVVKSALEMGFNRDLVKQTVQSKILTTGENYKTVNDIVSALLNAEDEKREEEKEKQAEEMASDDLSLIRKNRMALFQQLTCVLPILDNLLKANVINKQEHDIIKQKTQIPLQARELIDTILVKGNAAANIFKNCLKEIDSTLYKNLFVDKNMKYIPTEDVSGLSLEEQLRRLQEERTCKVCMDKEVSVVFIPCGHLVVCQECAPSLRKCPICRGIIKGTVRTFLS

[30] = target: Baculoviral IAP repeat-containing protein 3 (Homo sapiens) (UniProt Q13489); assay: Induction of degradation of cIAP2-BIR3 domain in human MDA-MB-231 cells; assay type: cell-based; conditions: dose 1-5 nM
Baculoviral IAP repeat-containing protein 3 (Homo sapiens), sequence (Q13489 whole entry, the tested form may be a part): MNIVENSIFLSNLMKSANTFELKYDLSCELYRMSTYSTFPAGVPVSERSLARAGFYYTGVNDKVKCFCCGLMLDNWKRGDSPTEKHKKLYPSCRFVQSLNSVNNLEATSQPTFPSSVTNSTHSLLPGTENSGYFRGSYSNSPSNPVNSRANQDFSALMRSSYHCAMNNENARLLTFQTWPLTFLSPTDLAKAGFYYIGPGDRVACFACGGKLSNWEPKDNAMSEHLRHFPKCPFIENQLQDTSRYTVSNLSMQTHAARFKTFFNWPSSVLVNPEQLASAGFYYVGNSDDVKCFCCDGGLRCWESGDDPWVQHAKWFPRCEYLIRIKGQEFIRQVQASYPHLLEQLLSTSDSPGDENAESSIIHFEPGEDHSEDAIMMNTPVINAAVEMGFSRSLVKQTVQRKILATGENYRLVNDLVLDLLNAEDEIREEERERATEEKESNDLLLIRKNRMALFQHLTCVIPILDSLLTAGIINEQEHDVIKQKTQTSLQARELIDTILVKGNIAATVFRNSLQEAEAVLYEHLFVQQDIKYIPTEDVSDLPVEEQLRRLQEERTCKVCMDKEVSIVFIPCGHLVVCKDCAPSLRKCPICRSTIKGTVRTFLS

With `CN[C@@H](C)C(=O)N[C@H](C(=O)N1CCC[C@H]1C(=O)N(CCc1ccccc1)C(=O)C(F)(F)F)[C@H](C)OCC#CC#CCO[C@H](C)[C@H](NC(=O)[C@H](C)NC)C(=O)N1CCC[C@H]1C(=O)N(CCc1ccccc1)C(=O)C(F)(F)F` the Activity [1] was “Toxic”.
Work on `CN[C@@H](C)C(=O)N[C@H](C(=O)N1CCC[C@H]1C(=O)Nc1cc2c(NC[C@H]3CC[C@H](CNc4ncnc5cc(OC)c(NC(=O)[C@@H]6CCCN6C(=O)[C@@H](NC(=O)[C@H](C)NC)C(C)(C)C)cc45)CC3)ncnc2cc1OC)C(C)(C)C` yielded an IC50 [2] of 0.31 nM and an IC50 [3] of 460 nM.
Work on `CN[C@@H](C)C(=O)N[C@H](C(=O)N1CCC[C@H]1C(=O)Nc1cc2c(N[C@H]3CC[C@H](Nc4ncnc5cc(OC)c(NC(=O)[C@@H]6CCCN6C(=O)[C@@H](NC(=O)[C@H](C)NC)C(C)(C)C)cc45)CC3)ncnc2cc1OC)C(C)(C)C` yielded an IC50 [2] of 0.14 nM, an IC50 [3] of 3560 nM and an IC50 [4] greater than 50 µM. The IC50 [5] was 43.6 µM, the IC50 [6] was 35.7 µM and the IC50 ([7]; read-out: IC50) was greater than 50 µM. The remaining at 1 h [8] was 86%, the remaining at 1 h [9] was 63% and the remaining at 1 h [10] was 100%. For the same molecule, the remaining at 1 h [11] was 94%, the Ki [12] was 64 nM and the fold change (FC) [13] was 10.7. The fold change (FC) [14] was 3.4, the IC50 [15] was 27.8 nM and the IC50 [16] was 19.2 nM. It also gave an IC50 [17] of 0.2 nM, an IC50 [18] of 0.2 nM and an IC50 [19] of 0.9 nM. It also gave an IC50 [20] of 0.1 nM, an IC50 [21] of 17.4 nM and an IC50 [22] greater than 10 µM. For the same molecule, the Activity [23] was “Non-Toxic”, the Activity [24] was “Active” and the viability at 0.001 µM [25] was 67%. The viability at 0.002 µM [26] was 42%, the viability at 0.005 µM [27] was 30% and the Activity [28] was “Dose-dependent effect”. For the same molecule, the Activity [29] was “Dose-dependent effect” and the Activity [30] was “Dose-dependent effect”.
`CN[C@@H](C)C(=O)N[C@H](C(=O)N1CCC[C@H]1C(=O)Nc1cc2c(NC[C@H]3CC[C@@H](CNc4ncnc5cc(OC)c(NC(=O)[C@@H]6CCCN6C(=O)[C@@H](NC(=O)[C@H](C)NC)C(C)(C)C)cc45)CC3)ncnc2cc1OC)C(C)(C)C` gave an IC50 [2] of 0.41 nM and an IC50 [3] of less than 620 nM.
In the case of `CN[C@@H](C)C(=O)N[C@H](C(=O)N1CCC[C@H]1C(=O)Nc1cc2c(Nc3ccc(OCC#CC#CCOc4ccc(Nc5ncnc6cc(OC)c(NC(=O)[C@@H]7CCCN7C(=O)[C@@H](NC(=O)[C@H](C)NC)C(C)(C)C)cc56)cn4)nc3)ncnc2cc1OC)C(C)(C)C`, the IC50 [2] is reported as 34.6 nM.
Work on `CN[C@@H](C)C(=O)N[C@H](C(=O)N1CCC[C@H]1C(=O)Nc1cc2c(NCC#CC#CCNc3ncnc4cc(OC)c(NC(=O)[C@@H]5CCCN5C(=O)[C@@H](NC(=O)[C@H](C)NC)C(C)(C)C)cc34)ncnc2cc1OC)C(C)(C)C` yielded an IC50 [2] of 0.3 nM, a remaining at 1 h [8] of 64% and a remaining at 1 h [9] of 65%. It also gave a remaining at 1 h [10] of 87% and a remaining at 1 h [11] of 62%.
`CN[C@@H](C)C(=O)N[C@H](C(=O)N1CCC[C@H]1C(=O)Nc1cc2c(N[C@H]3CC[C@@H](Nc4ncnc5cc(OC)c(NC(=O)[C@@H]6CCCN6C(=O)[C@@H](NC(=O)[C@H](C)NC)C(C)(C)C)cc45)CC3)ncnc2cc1OC)C(C)(C)C` gave an IC50 [2] of 5.93 nM and an IC50 [3] of 5530 nM.
`CN[C@@H](C)C(=O)N[C@H](C(=O)N1CCC[C@H]1C(=O)Nc1cc2c(NCCCCCCCCNc3ncnc4cc(OC)c(NC(=O)[C@@H]5CCCN5C(=O)[C@@H](NC(=O)[C@H](C)NC)C(C)(C)C)cc34)ncnc2cc1OC)C(C)(C)C` gave an IC50 [2] of 0.3 nM and an IC50 [3] of 430 nM.
Work on `CN[C@@H](C)C(=O)N[C@H](C(=O)N1CCC[C@H]1C(=O)Nc1cc2c(N3CCN(c4ncnc5cc(OC)c(NC(=O)[C@@H]6CCCN6C(=O)[C@@H](NC(=O)[C@H](C)NC)C(C)(C)C)cc45)CC3)ncnc2cc1OC)C(C)(C)C` yielded an IC50 [2] of 2.3 nM.
With `CN[C@@H](C)C(=O)N[C@H](C(=O)N1CCC[C@H]1C(=O)Nc1cc2c(NC[C@H]3CC[C@H](CNc4ncnc5cc(OC)c(NC(=O)[C@@H]6CCCN6C(=O)[C@@H](NC(=O)[C@H](C)NC)C6CCCCC6)cc45)CC3)ncnc2cc1OC)C1CCCCC1` the IC50 [2] was 1.03 nM and the IC50 [3] was 660 nM.
`CN[C@@H](C)C(=O)N[C@H](C(=O)N1CCC[C@H]1C(=O)Nc1cc2c(NCc3ccc(CNc4ncnc5cc(OC)c(NC(=O)[C@@H]6CCCN6C(=O)[C@@H](NC(=O)[C@H](C)NC)C(C)(C)C)cc45)cc3)ncnc2cc1OC)C(C)(C)C` gave an IC50 [2] of 4.3 nM.
In the case of `CN[C@@H](C)C(=O)N[C@H](C(=O)N1CCC[C@H]1C(=O)Nc1cc2c(NCCOCCOCCNc3ncnc4cc(OC)c(NC(=O)[C@@H]5CCCN5C(=O)[C@@H](NC(=O)[C@H](C)NC)C(C)(C)C)cc34)ncnc2cc1OC)C(C)(C)C`, the IC50 [2] is reported as 5.04 nM and the IC50 [3] is reported as 5650 nM.
Molecule `CN[C@@H](C)C(=O)N[C@H](C(=O)N1CCC[C@H]1C(=O)Nc1cc2c(OCC#CC#CCOc3ncnc4cc(OC)c(NC(=O)[C@@H]5CCCN5C(=O)[C@@H](NC(=O)[C@H](C)NC)C(C)(C)C)cc34)ncnc2cc1OC)C(C)(C)C` has an IC50 [2] of 0.2 nM, an IC50 [3] of 240 nM and an IC50 [4] greater than 50 µM. The IC50 [5] was 12.6 µM, the IC50 [6] was greater than 50 µM and the IC50 [7] was “Not Active”.
`CN[C@@H](C)C(=O)N[C@H](C(=O)N1CCC[C@H]1C(=O)Nc1cc2c(OCC#CCOc3ncnc4cc(OC)c(NC(=O)[C@@H]5CCCN5C(=O)[C@@H](NC(=O)[C@H](C)NC)C(C)(C)C)cc34)ncnc2cc1OC)C(C)(C)C` gave an IC50 [2] of 0.4 nM and an IC50 [3] of 860 nM.

Source: ChEMBL document CHEMBL4715861, “Design, synthesis and biological evaluation of new bivalent quinazoline analogues as IAP antagonists” (Bioorg Med Chem Lett, 2021)
